We go through 22 molecules from patent US20240254103A9, “NOVEL PYRIMIDINE DERIVATIVE, AND COMPOSITION FOR PREVENTING OR TREATING NEURODEGENERATIVE DISEASES AND CANCER, COMPRISING SAME” (WHAN IN PHARMACEUTICAL CO., LTD., priority 2020, published 2024).

The target of the experiment is T1, wild-type LRRK2 (Homo sapiens, UniProt Q5S007).
T1 construct: DNA tag for qPCR detection (not a peptide; the protein part that carries it is not described); made in house; host or cells: HEK 293 cells (the same paragraph also describes T7 phage grown in E. coli BL21)
T1 sequence (Q5S007 970-2527): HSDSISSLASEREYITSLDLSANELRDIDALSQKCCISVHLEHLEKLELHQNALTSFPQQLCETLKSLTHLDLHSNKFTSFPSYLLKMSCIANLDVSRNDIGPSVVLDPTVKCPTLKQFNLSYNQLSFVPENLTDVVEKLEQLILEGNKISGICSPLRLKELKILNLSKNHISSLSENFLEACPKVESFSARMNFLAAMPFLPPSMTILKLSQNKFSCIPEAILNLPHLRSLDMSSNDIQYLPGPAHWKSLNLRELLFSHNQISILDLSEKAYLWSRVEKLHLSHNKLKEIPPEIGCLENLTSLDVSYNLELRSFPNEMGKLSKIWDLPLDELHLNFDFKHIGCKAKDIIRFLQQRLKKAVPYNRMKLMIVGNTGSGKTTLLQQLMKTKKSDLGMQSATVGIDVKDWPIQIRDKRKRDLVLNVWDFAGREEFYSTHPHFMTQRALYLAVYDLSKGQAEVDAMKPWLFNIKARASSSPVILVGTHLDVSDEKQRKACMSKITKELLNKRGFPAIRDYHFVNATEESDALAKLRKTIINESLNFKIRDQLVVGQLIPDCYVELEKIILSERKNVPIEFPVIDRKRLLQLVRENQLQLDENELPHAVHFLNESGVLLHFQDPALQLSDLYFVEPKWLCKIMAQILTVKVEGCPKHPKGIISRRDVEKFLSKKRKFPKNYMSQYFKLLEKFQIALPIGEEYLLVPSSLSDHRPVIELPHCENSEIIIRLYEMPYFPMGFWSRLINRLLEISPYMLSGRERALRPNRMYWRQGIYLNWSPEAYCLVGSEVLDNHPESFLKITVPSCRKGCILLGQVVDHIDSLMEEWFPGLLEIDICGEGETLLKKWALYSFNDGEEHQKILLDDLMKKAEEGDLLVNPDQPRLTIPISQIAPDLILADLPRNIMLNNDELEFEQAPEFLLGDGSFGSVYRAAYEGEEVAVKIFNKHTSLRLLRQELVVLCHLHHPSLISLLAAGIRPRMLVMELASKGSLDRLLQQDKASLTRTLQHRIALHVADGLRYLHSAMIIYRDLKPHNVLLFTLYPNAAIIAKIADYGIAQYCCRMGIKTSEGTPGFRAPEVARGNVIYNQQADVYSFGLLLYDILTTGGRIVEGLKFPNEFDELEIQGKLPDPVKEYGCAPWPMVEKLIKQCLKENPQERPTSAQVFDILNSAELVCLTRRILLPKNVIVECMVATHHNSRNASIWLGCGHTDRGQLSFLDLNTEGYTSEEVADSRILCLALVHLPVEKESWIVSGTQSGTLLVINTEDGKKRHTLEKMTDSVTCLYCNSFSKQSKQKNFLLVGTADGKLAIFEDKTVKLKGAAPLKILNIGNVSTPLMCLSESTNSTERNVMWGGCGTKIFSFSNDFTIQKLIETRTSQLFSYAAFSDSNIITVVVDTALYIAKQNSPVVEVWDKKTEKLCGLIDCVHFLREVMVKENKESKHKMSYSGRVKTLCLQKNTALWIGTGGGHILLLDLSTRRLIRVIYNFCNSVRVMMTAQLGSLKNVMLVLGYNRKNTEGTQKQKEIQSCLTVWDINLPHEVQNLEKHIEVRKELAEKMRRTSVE
Description: Inhibitory activity against LRRK2: competition binding to ligand-affinity beads, DNA-tagged kinase quantitated by qPCR. The following applies: % of ctrl; for remaining binding at 0.01 µM: 10 nM compound, read-out: LRRK2(WT) Remaining kinase activity(%) at 10 nM; for remaining binding at 0.05 µM: 50 nM compound, read-out: LRRK2(WT) Remaining kinase activity(%) at 50 nM. As for the experimental part:
Representative compounds synthesized in Example 1 were assayed for inhibitory activity against wild-type LRRK2 and mutant LRRK2 (G2019S), and the results are summarized in Tables 2 and 3. In brief, a T7 phase strain carrying the wild-type kinase consisting of amino acid residues from H970 to E2527 of human-derived LRRK2 (Accession no. NP_940980.3) or a T7 phase strain carrying the G2019S mutation kinase was infected into E. coli strain BL21 which was then grown until log phase. After infection with T7 phases (multiplicity of infection=0.4), the cells were cultured at 32° C. for 90-150 minutes while shaking. Then, E. coli lysates were centrifuged (6,000×g) and the supernatant was filtered through a 0.2-μm filter. The kinases were produced in HEK 293 cells. In this regard, DNA was tagged to obtain DNA-tagged kinases for qPCR detection. For use in analyzing the kinases, affinity resins were prepared by treating streptavidin-coated magnetic beads with biotinylated small molecule ligands at room temperature for 30 minutes. Then, the liganded beads were blocked with an excess of biotin and washed with a blocking buffer (SeaBlock (Pierce), 1% BSA, 0.05% Tween 20, 1 mM DTT) to remove unbound ligands and thus to reduce the binding of non-specific phages. […] After one hour of incubation, the affinity beads were washed with a wash buffer (1×PBS, 0.05% Tween 20), resuspended in an elution buffer (1×PBS, 0.05% Tween 20, 0.5 μM non-biotinylated affinity ligand), and incubated at room temperature for 30 minutes while shaking. Afterwards, concentrations of wild-type LRRK2 and mutant LRRK2 (G2019S) in the eluted samples were quantitated by qPCR. Activity values are expressed as percentages relative to the control (% of ctrl). The compounds used in the activity assay were prepared into 40× stocks in 100% DMSO. The stocks were directly diluted during analysis procedures.
Table 2 includes inhibitory activities of the representative compounds of the present disclosure at 100 nM against wild-type LRRK2 and mutant LRRK2 (G2019S) while Table 3 includes inhibitory activities of the representative compounds at 10 nM and 50 nM against wild-type LRRK2. (+++ less than 10%; ++ less than 30%; + less than 50%; −50% or higher)
(In general: In qPCR the cycle at which signal appears reflects the starting amount.)

For the molecule `COCCNC(=O)c1ccc(Nc2ncc(Cl)c(-c3cnn(C(C)C)c3)n2)c(OC)c1` [Compound 140, 4-((5-chloro-4-(1-isopropyl-1H-pyrazol-4-yl)pyrimidin-2-yl)amino)-3-methoxy-N-(2-methoxyethyl)benzamide], the remaining binding at 0.01 µM is no less than 50% and the remaining binding at 0.05 µM was less than 30%.

As to `COc1cc(C(=O)N(C)CCO)ccc1Nc1ncc(Cl)c(-c2cnn(C(C)C)c2)n1` [Compound 141, 4-((5-chloro-4-(1-isopropyl-1H-pyrazol-4-yl)pyrimidin-2-yl)amino)-N-(2-hydroxyethyl)-3-methoxy-N-methylbenzamide], the remaining binding at 0.01 µM was no less than 50% and the remaining binding at 0.05 µM is less than 30%.

In the case of `COc1cc(C(=O)Nc2ccc(Cl)cc2)ccc1Nc1ncc(Cl)c(-c2cnn(C(C)C)c2)n1` [Compound 151, 4-((5-chloro-4-(1-isopropyl-1H-pyrazol-4-yl)pyrimidin-2-yl)amino)-N-(4-chlorophenyl)-3-methoxybenzamide], the remaining binding at 0.01 µM is no less than 50% and the remaining binding at 0.05 µM was less than 50%.

Take `COc1cc(C(=O)NCc2cccc(O)c2)ccc1Nc1ncc(Cl)c(-c2cnn(C(C)C)c2)n1` [Compound 152, 4-((5-chloro-4-(1-isopropyl-1H-pyrazol-4-yl)pyrimidin-2-yl)amino)-N-(3-hydroxybenzyl)-3-methoxybenzamide]: the remaining binding at 0.01 µM is no less than 50% and the remaining binding at 0.05 µM was less than 30%.

`COc1ccccc1CNC(=O)c1ccc(Nc2ncc(Cl)c(-c3cnn(C(C)C)c3)n2)c(OC)c1` [Compound 154, 4-((5-chloro-4-(1-isopropyl-1H-pyrazol-4-yl)pyrimidin-2-yl)amino)-3-methoxy-N-(2-methoxybenzyl)benzamide]: the remaining binding at 0.01 µM is no less than 50% and the remaining binding at 0.05 µM is less than 30%.

For `COc1cc(C(=O)NC2CC(C)(C)NC(C)(C)C2)ccc1Nc1ncc(Cl)c(-c2cnn(C(C)C)c2)n1` [Compound 166, 4-((5-chloro-4-(1-isopropyl-1H-pyrazol-4-yl)pyrimidin-2-yl)amino)-3-methoxy-N-(2,2,6,6-tetramethylpiperidin-4-yl)benzamide], the remaining binding at 0.01 µM was no less than 50% and the remaining binding at 0.05 µM is less than 30%.

For the molecule `COc1cc(C(=O)NN2C(C)CCCC2C)ccc1Nc1ncc(Cl)c(-c2cnn(C(C)C)c2)n1` (centres unmarked) [Compound 167, 4-((5-chloro-4-(1-isopropyl-1H-pyrazol-4-yl)pyrimidin-2-yl)amino)-N-(2,6-dimethylpiperidin-1-yl)-3-methoxybenzamide], the remaining binding at 0.01 µM was no less than 50% and the remaining binding at 0.05 µM is less than 30%.

Regarding `COc1cc(C(=O)NCc2ccc(Cl)nc2)ccc1Nc1ncc(Cl)c(-c2cnn(C(C)C)c2)n1` [Compound 168, 4-((5-chloro-4-(1-isopropyl-1H-pyrazol-4-yl)pyrimidin-2-yl)amino)-N-((6-chloropyridin-3-yl)methyl)-3-methoxybenzamide], the remaining binding at 0.01 µM is no less than 50% and the remaining binding at 0.05 µM is less than 50%.

Consider `CCOC(=O)CCNC(=O)c1ccc(Nc2ncc(Cl)c(-c3cnn(C(C)C)c3)n2)c(OC)c1` [Compound 176, ethyl 3-(4-((5-chloro-4-(1-isopropyl-1H-pyrazol-4-yl)pyrimidin-2-yl)amino)-3-methoxybenzamido)propanoate], for which the remaining binding at 0.01 µM is no less than 50% and the remaining binding at 0.05 µM is less than 50%.

As to `COc1cc(C(=O)NC(C)c2ccccc2)ccc1Nc1ncc(Cl)c(-c2cnn(C(C)C)c2)n1` (centres unmarked) [Compound 179, 4-((5-chloro-4-(1-isopropyl-1H-pyrazol-4-yl)pyrimidin-2-yl)amino)-3-methoxy-N-(1-phenylethyl)benzamide], the remaining binding at 0.01 µM was no less than 50% and the remaining binding at 0.05 µM is less than 50%.

`CCC(NC(=O)c1ccc(Nc2ncc(Cl)c(-c3cnn(C(C)C)c3)n2)c(OC)c1)c1ccccc1` (centres unmarked) [Compound 182, 4-((5-chloro-4-(1-isopropyl-1H-pyrazol-4-yl)pyrimidin-2-yl)amino)-3-methoxy-N-(1-phenylpropyl)benzamide]: the remaining binding at 0.01 µM was no less than 50% and the remaining binding at 0.05 µM was less than 50%.

With `COc1cc(C(=O)NCc2ccc(N)cc2)ccc1Nc1ncc(Cl)c(-c2cnn(C(C)C)c2)n1` [Compound 183, N-(4-aminobenzyl)-4-((5-chloro-4-(1-isopropyl-1H-pyrazol-4-yl)pyrimidin-2-yl)amino)-3-methoxybenzamide], the remaining binding at 0.01 µM was no less than 50% and the remaining binding at 0.05 µM was less than 30%.

`COc1cc(C(=O)NCc2ccc(S(N)(=O)=O)cc2)ccc1Nc1ncc(Cl)c(-c2cnn(C(C)C)c2)n1` [Compound 189, 4-((5-chloro-4-(1-isopropyl-1H-pyrazol-4-yl)pyrimidin-2-yl)amino)-3-methoxy-N-(4-sulfamoylbenzyl)benzamide]: the remaining binding at 0.01 µM was no less than 50% and the remaining binding at 0.05 µM is less than 50%.

With `COc1cc(C(=O)Nc2cccc(NS(C)(=O)=O)c2)ccc1Nc1ncc(Cl)c(-c2cnn(C(C)C)c2)n1` [Compound 190, 4-((5-chloro-4-(1-isopropyl-1H-pyrazol-4-yl)pyrimidin-2-yl)amino)-3-methoxy-N-(3-(methylsulfonamido)phenyl)benzamide], the remaining binding at 0.01 µM is no less than 50% and the remaining binding at 0.05 µM is less than 50%.

Take `COc1cc(C(=O)Nc2cccc(S(N)(=O)=O)c2)ccc1Nc1ncc(Cl)c(-c2cnn(C(C)C)c2)n1` [Compound 191, 4-((5-chloro-4-(1-isopropyl-1H-pyrazol-4-yl)pyrimidin-2-yl)amino)-3-methoxy-N-(3-sulfamoylphenyl)benzamide]: the remaining binding at 0.01 µM is no less than 50% and the remaining binding at 0.05 µM was less than 30%.

Turning to `COc1cc(C(=O)NCCS(C)(=O)=O)ccc1Nc1ncc(Cl)c(-c2cnn(C(C)C)c2)n1` [Compound 192, 4-((5-chloro-4-(1-isopropyl-1H-pyrazol-4-yl)pyrimidin-2-yl)amino)-3-methoxy-N-(2-(methylsulfonyl)ethyl)benzamide], the remaining binding at 0.01 µM was no less than 50% and the remaining binding at 0.05 µM is less than 30%.

As to `COc1cc(C(=O)NCCCn2ccnc2)ccc1Nc1ncc(Cl)c(-c2cnn(C(C)C)c2)n1` [Compound 197, N-(3-(1H-imidazol-1-yl)propyl)-4-((5-chloro-4-(1-isopropyl-1H-pyrazol-4-yl)pyrimidin-2-yl)amino)-3-methoxybenzamide], the remaining binding at 0.01 µM was no less than 50% and the remaining binding at 0.05 µM is less than 50%.

Consider `COc1cc(C(=O)NCC(OC)OC)ccc1Nc1ncc(Cl)c(-c2cnn(C(C)C)c2)n1` [Compound 198, 4-((5-chloro-4-(1-isopropyl-1H-pyrazol-4-yl)pyrimidin-2-yl)amino)-N-(2,2-dimethoxyethyl)-3-methoxybenzamide], for which the remaining binding at 0.01 µM is no less than 50% and the remaining binding at 0.05 µM was less than 50%.

As for `COC(=O)[C@@H]1CCCN1C(=O)c1ccc(Nc2ncc(Cl)c(-c3cnn(C(C)C)c3)n2)c(OC)c1` [Compound 200, methyl (4-((5-chloro-4-(1-isopropyl-1H-pyrazol-4-yl)pyrimidin-2-yl)amino)-3-methoxybenzoyl)-L-prolinate], the remaining binding at 0.01 µM is no less than 50% and the remaining binding at 0.05 µM is less than 50%.

In the case of `CCN(C)C(=O)c1ccc(Nc2ncc(Cl)c(-c3cnn(C(C)C)c3)n2)c(OC)c1` [Compound 202, 4-((5-chloro-4-(1-isopropyl-1H-pyrazol-4-yl)pyrimidin-2-yl)amino)-N-ethyl-3-methoxy-N-methylbenzamide], the remaining binding at 0.01 µM is no less than 50% and the remaining binding at 0.05 µM is less than 50%.

As to `COc1ccc(CNC(=O)c2ccc(Nc3ncc(Cl)c(-c4cnn(C(C)C)c4)n3)c(OC)c2)cc1` [Compound 203, 4-((5-chloro-4-(1-isopropyl-1H-pyrazol-4-yl)pyrimidin-2-yl)amino)-3-methoxy-N-(4-methoxybenzyl)benzamide], the remaining binding at 0.01 µM was no less than 50% and the remaining binding at 0.05 µM was less than 50%.

Turning to `COc1cc(C(=O)Nc2cc(C)c(OC)c(C)c2)ccc1Nc1ncc(Cl)c(-c2cnn(C(C)C)c2)n1` [Compound 204, 4-((5-chloro-4-(1-isopropyl-1H-pyrazol-4-yl)pyrimidin-2-yl)amino)-3-methoxy-N-(4-methoxy-3,5-dimethylphenyl)benzamide], the remaining binding at 0.01 µM is no less than 50% and the remaining binding at 0.05 µM is less than 50%.
